Experimental data reported in patent US7056948B2, “Use of odor reducing and cross-adapting agents to reduce animal waste malodors” (Monell Chemical Senses Center, priority 2000, dated 2006).

Columns and labels:
[1] = Initial olfactory evaluation by judges of swine slurry treated with a single odor-reducing or cross-adapting agent; conditions: initial olfactory evaluations by several judges; 1-10% by weight
Description: We attempted amelioration of odor from swine slurry. Swine slurry is a highly malodorous aqueous mixture of pig feces, urine, body secretions and spent feed. Each concentration was mixed with 1 gm of untreated swine slurry. Untreated swine slurry served as a control.

[2] = cited from earlier work

Substance	suppression of the stronger malodor notes in swine slurry [1]	reduction in malodor in patients with urinary and fecal incontinence ([2]; 100-200 mg doses, after the first week of treatment)	dosages safely used ([2]; Chernomorsky et al.)	control of malodors in colostomy patients ([2]; oral, 100-200 mg daily)	side effects in colostomy patients ([2]; oral, 100-200 mg daily)
bismuth subgallate [BiG]	appeared to suppress the stronger malodor notes	–	–	–	–
chlorophyllin copper complex [CCC]	appeared to suppress the stronger malodor notes	marked reduction in malodor	up to 800 mg/day	sufficient to control malodors	without undesirable side effects
